This is an account of results in patent publication US20140066394A1, “Substituted 6-(Benzylamino) Purine Riboside Derivatives, Use Thereof and Compositions Containing These Derivatives” (Biopatterns, S.R.O, priority 2009, published 2014).

Common to all, as to format: cell-based
Test [1] deals with Human T-lymphoblastic leukemia cell line CEM. Put plainly: In vitro cytotoxicity, Calcein AM assay, CEM. Particulars: Homo sapiens, 72 hours. The source says: Low cytotoxicity of the compounds is the major property determining the cosmetic use. One of the parameters used, as the basis for cytotoxicity assays, is the metabolic activity of viable cells. For example, a microtiter assay, which uses the Calcein AM, is now widely used to quantitate cell proliferation and cytotoxicity. For instance, this assay is used in drug screening programs and in chemosensitivity testing. Because only metabolically active cells cleave Calcein AM, these assays detect viable cells exclusively. The quantity of […] Calcein AM corresponds to the number of vital cells in the culture.
Human T-lymphoblastic leukemia cell line CEM; promyelocytic HL-60 and monocytic U937 leukemias; breast carcinoma cell lines MCF-7, BT549, MDA-MB-231; glioblastoma U87MG cells; cervical carcinoma cells HELA; sarcoma cells U2OS and Saos2; hepatocellular carcinoma HepG2; mouse fibroblasts NIH3T3; mouse immortalized bone marrow macrophages B2.4 and B10A.4; P388D1 and L1210 leukemia; B16 and B16F10 melanomas; human osteosarcoma HOS; human myeloid leukemia K-562; human skin melanoma G-361 were used for routine screening of compounds. The cells were maintained in Nunc/Corning 80 cm^2 plastic tissue culture flasks and cultured in cell culture medium (DMEM with 5 g/l glucose, 2 mM glutamine, 100 U/mL penicillin, 100 μg/mL streptomycin, 10% fetal calf serum and sodium bicarbonate).
The cell suspensions that were prepared and diluted according to the particular cell type and the expected target cell density (2.500-30.000 cells per well based on cell growth characteristics) were added by pipette ([…]) into 96/well microtiter plates. Inoculates were allowed a pre-incubation period of 24 hours at 37° C. and 5% CO2 for stabilisation. Four-fold dilutions of the intended test concentration were added at time zero in 20 μl aliquots to the microtiter plate wells. Usually, the compound tested was evaluated at six 4-fold dilutions. In routine testing, the highest well concentration was 100 μM, but it can be the matter of change dependent on the agent. All drug concentrations were examined in duplicates. Incubations of cells with the tested compounds lasted for 72 hours at 37° C., in 5% CO2 atmosphere and 100% humidity. At the end of the incubation period, the cells were assayed by using Calcein AM. Ten microliters of the stock solution were pipetted into each well and incubated for 1 hour. Fluorescence (FD) was measured with the Labsystem FIA Reader Fluoroscan Ascent (UK). The tumour cell survival (GI50) was calculated using the following equitation: TCS=(FDdrug exposed well/mean FDeontrol wells)×100%. The GI50 value, the drug concentration lethal to 50% of the tumour cells, was calculated from the obtained dose response curves.
Zero cytotoxicity of the novel compounds is the basic prerequisite for agricultural and tumor-unrelated applications. The cytoxicity of the novel compounds was tested on a panel of cell lines of different histogenetic and species origin (Table 9). We show herein that equal activities were found in all tumour cell lines tested, however, the non-malignant cells, e.g. NIH3T3 fibroblasts and normal human lymphocytes, were resistant to 2,6-disubstituted purine ribosides induced cytotoxicity. The compounds listed in Tab. 9 can be divided into 2 groups. The first group contains “classical cytokinins” represented by 6-substituted purine ribosides (which are known in the prior art). The second group contains the novel 2,6-disubstituted derivatives of these compounds. […] GI50 for NIH3T3 fibroblasts and normal human lymphocytes was always higher than 100 μM. The novel derivatives show no toxicity to normal and tumour cells in concentrations about 100 μM and thus are more suitable for agricultural applications than “classical cytokinins” (6-substituted purine riboside derivatives).

In test [2] the test system is neutrophils. Put plainly: Neutrophil spreading in Fibronectin. The following applies: FIG. 8.
The subject of test [3] is neutrophils. Put plainly: Neutrophil superoxide generation, lucigenin based assay. The following applies: Homo sapiens, primed neutrophils, compound 10 minutes prior to fMLP (FIG. 2). Here is the method: Neutrophils were cultured at 2×10^6 cells/ml in RPMI1640 medium containing human serum antibiotics and 20 ng/ml TNFα for 10 minutes prior to addition of a range of concentrations of compound 10. Generation of superoxide was determined over a 10 minute period using a lucigenin based assay. The area under the curve was calculated to give superoxide generation over the whole assay period.
Anti-inflammatory effects against neutrophils were determined by assessing effects of several of the compounds on neutrophil inflammatory activity (superoxide generation, secretion of chemoattractant IL8 and degranulation to release myeloperoxidase). Neutrophils were isolated from human blood to a purity of greater than 95% and were cultured in RPMI1640 medium containing 2% human AB serum, 2 mM L-glutamine and antibiotics (100 U/ml penicillin, […] streptomycin). Neutrophils were primed for 30 minutes with 50 ng/ml GM-CSF prior to treatment with the bacterial stimulant fMLP (100 ng/ml) and measurement of superoxide generation in a lucigenin based assay (see Pongracz J and Lord J M 1998, Biochem. Biophys. Res. Commun. 247, 624-629) and release of IL8 and myeloperoxidase using an ELISA method. The novel compounds were added to the culture at a range of concentrations (0.1-100 μM) 10 minutes prior to addition of fMLP. […]

Another test has as its system β-adrenergic receptors. Put plainly: Isoproterenol-induced cAMP synthesis in rat C6 glioma (anti-inflammatory activity). Here is the method:
Anti-inflammatory activity of several of the 2-substituted 6-benzylaminopurine riboside derivatives of this invention was determined; kinetin riboside was also evaluated as a control. Rat C6 glioma (ATCC No. CCL107) was cultivated in monolayer in serum-free chemically defined medium containing Ham's F10/minimal essential medium (1:1 v/v), 2 mM L-glutamine, 1% (v/v) minimal essential medium vitamins (100×), 1% (v/v) minimal essential medium nonessential amino acids (100×), 100 U/mL penicillin, […], and 30 nM sodium selenite. Incubation was performed at 37° C. in a humidified atmosphere. The assays were performed in the logaritmic growth phase at a density of 2.5×10^5 cells/cm^2.
Intracellular cAMP synthesis was induced by addition of 5 mM (−)-isoproterenol; various amounts of test compounds were added at the same time as the (−)-isoproterenol. After […] incubation at 37° C., the medium was removed and the cellular amount of cAMP was determined using the cAMP-enzyme immunoassay kit from Amersham. The I50 value was determined from a dose-response curve in duplicate. The effect of nine purine analogues was measured after simultaneous addition with isoproterenol.
As P2Y1-like and A2 purinergic receptors, negatively and positively coupled to adenylate cyclase respectively, are present on rat C6 glioma as to be determined if the modulation of the synthesis of cAMP is due to inhibition of the activation of β-adrenergic receptors by isoproterenol are due to activation of purinergic receptors.

`COc1cccc(CNc2nc(Cl)nc3c2ncn3C2OC(CO)C(O)C2O)c1O` (centres unmarked) [Compound 10, 2-Chloro-6-(2-hydroxy-3-methoxybenzylamino)purine riboside]: the GI50 in test [1] is > 100 µM. The “neutrophil spreading in Fibronectin” value with neutrophils [2] is recorded as “reduces neutrophil spreading”. The IC50 in the test with neutrophils [3] was found to be 5 µM; in the test on β-adrenergic receptors (cellular cAMP by enzyme immunoassay, dose-response curve in duplicate, read-out: I50) it was 7.5 ± 1 µM. The “Effect (modulation of isoproterenol-induced cAMP synthesis)” value in the test on β-adrenergic receptors (added simultaneously with (−)-isoproterenol) was “inhibition”.

Broadly, the GI50 is the concentration that inhibits growth by half.
